Calls of active or inactive are those of the source. The rule behind the calls is not given here.
How the values were obtained:
[1] = target: T1, C-X-C chemokine receptor type 1 (Homo sapiens, UniProt P25024); test: Inhibition of CXCR1
T1 sequence (P25024 whole entry): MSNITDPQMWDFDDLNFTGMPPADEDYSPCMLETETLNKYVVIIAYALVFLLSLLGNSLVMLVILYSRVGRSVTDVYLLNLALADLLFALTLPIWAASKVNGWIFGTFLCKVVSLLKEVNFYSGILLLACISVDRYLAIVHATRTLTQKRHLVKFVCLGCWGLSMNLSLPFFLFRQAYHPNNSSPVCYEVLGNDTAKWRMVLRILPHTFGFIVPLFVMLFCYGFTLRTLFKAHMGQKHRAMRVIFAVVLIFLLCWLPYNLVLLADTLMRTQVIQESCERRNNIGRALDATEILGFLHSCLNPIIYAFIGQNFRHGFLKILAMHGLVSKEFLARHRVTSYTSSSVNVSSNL

[2] = target: T2, C-X-C chemokine receptor type 2 (Homo sapiens, UniProt P25025); test: Inhibition of CXCR2
T2 sequence (P25025 whole entry): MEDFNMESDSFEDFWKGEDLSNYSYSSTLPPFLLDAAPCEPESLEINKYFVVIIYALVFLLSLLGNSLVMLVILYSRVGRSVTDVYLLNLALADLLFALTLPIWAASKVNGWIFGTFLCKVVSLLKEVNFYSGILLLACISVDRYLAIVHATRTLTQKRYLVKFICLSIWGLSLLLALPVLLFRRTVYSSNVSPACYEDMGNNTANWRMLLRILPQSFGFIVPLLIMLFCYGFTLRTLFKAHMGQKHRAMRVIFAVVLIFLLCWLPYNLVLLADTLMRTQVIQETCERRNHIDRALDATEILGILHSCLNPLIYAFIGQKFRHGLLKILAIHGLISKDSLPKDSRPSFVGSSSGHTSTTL

[3] = AUC in rat at 10 mg/kg, po; format: ADME, organism-based; design: dose 10 mg/kg, route oral; conditions: plasma
[4] = target: T3, C-X-C chemokine receptor type 1 (Homo sapiens) (UniProt P25024); test: Inhibition of CXCR1-mediated chemotaxis in Ba/F3 cells expressing human CXCR1 at >10000 nM; format: cell-based; conditions: BaF3
T3 sequence (whole entry): T1 sequence (P25024 whole entry)

[5] = target: T3, C-X-C chemokine receptor type 1 (Homo sapiens); test: Inhibition of CXCR1 at >10000 nM

| Compound | IC50 [1] [nM] | IC50 [2] [nM] | AUC [3] [µM·h] | Activity [4] | Activity [5] |
| --- | --- | --- | --- | --- | --- |
| CCC(Nc1c(Nc2cccc(C(=O)N(C)C)c2O)c(=O)c1=O)c1ccc(C(F)F)o1 (stereo not given) | 568 | 6.8 |  |  |  |
| CCC(Nc1c(Nc2cccc(C(=O)N(C)C)c2O)c(=O)c1=O)c1ccc(C(F)(F)F)o1 (stereo not given) | 6060 | 17.2 |  |  |  |
| CCC(Nc1c(Nc2cccc(C(=O)N(C)C)c2O)c(=O)c1=O)c1cocn1 (stereo not given) | 805 | 10.9 |  |  |  |
| CCC(Nc1c(Nc2cccc(C(=O)N(C)C)c2O)c(=O)c1=O)c1cc(Br)co1 (stereo not given) | 93 | 5 |  |  |  |
| CCC(Nc1c(Nc2cccc(C(=O)N(C)C)c2O)c(=O)c1=O)c1cc2ccccc2o1 (stereo not given) | 412 | 3.5 |  |  |  |
| CCC(Nc1c(Nc2cccc(C(=O)N(C)C)c2O)c(=O)c1=O)c1ccsc1 (stereo not given) | 165 | 5.8 |  |  |  |
| CCC(Nc1c(Nc2cccc(C(=O)N(C)C)c2O)c(=O)c1=O)c1cc(C)on1 (stereo not given) | 224 | 7.5 |  |  |  |
| CCC(Nc1c(Nc2cccc(C(=O)N(C)C)c2O)c(=O)c1=O)c1ccncc1 (stereo not given) | 2860 | 50 |  |  |  |
| CCC(Nc1c(Nc2cccc(C(=O)N(C)C)c2O)c(=O)c1=O)c1cc(-c2ccncc2)co1 (stereo not given) | 526 | 9.5 |  |  |  |
| CCC(Nc1c(Nc2cccc(C(=O)N(C)C)c2O)c(=O)c1=O)c1cc(Cl)co1 (stereo not given) | 100 | 4.5 |  |  |  |
| CCC(Nc1c(Nc2cccc(C(=O)N(C)C)c2O)c(=O)c1=O)c1ccc(Br)o1 (stereo not given) | 463 | 4.7 |  |  |  |
| CCC(Nc1c(Nc2cccc(C(=O)N(C)C)c2O)c(=O)c1=O)c1cc(-c2ccccc2)co1 (stereo not given) | 150 | 6.1 |  |  |  |
| CCC(Nc1c(Nc2cccc(C(=O)N(C)C)c2O)c(=O)c1=O)c1nc(C)no1 (stereo not given) | 289 | 8.2 |  |  |  |
| CCC(Nc1c(Nc2cccc(C(=O)N(C)C)c2O)c(=O)c1=O)c1occc1Br (stereo not given) | 1020 | 16.5 |  |  |  |
| CCC(Nc1c(Nc2cccc(C(=O)N(C)C)c2O)c(=O)c1=O)c1ccc(-c2cccc(Cl)c2)o1 (stereo not given) | 3380 | 58 |  |  |  |
| CC[C@@H](Nc1c(Nc2cccc(C(=O)N(C)C)c2O)c(=O)c1=O)c1cc(Cl)co1 | 62 | 3.8 | 21.5 |  |  |
| CC[C@@H](Nc1c(Nc2cccc(C(=O)N(C)C)c2O)c(=O)c1=O)c1ccccn1 | 148 | 3.3 |  | inactive |  |
| CCC(Nc1c(Nc2cccc(C(=O)N(C)C)c2O)c(=O)c1=O)c1cc(-c2ccsc2)co1 (stereo not given) | 221 | 8.2 |  |  |  |
| CCC(Nc1c(Nc2cccc(C(=O)N(C)C)c2O)c(=O)c1=O)c1ccc(-c2ccccc2Cl)o1 (stereo not given) | 4870 | 49 |  |  |  |
| CCC(Nc1c(Nc2cccc(C(=O)N(C)C)c2O)c(=O)c1=O)c1nccs1 (stereo not given) | 703 | 9.8 |  |  |  |

| Compound | IC50 [1] [nM] | IC50 [2] [nM] | AUC [3] [µM·h] | Activity [4] | Activity [5] |
| --- | --- | --- | --- | --- | --- |
| CCC(Nc1c(Nc2cccc(C(=O)N(C)C)c2O)c(=O)c1=O)c1ccc(Cl)s1 (stereo not given) | 1110 | 6.2 |  |  |  |
| CCc1ccc(C(CC)Nc2c(Nc3cccc(C(=O)N(C)C)c3O)c(=O)c2=O)o1 (stereo not given) | 854 | 4.1 |  |  |  |
| CCC(Nc1c(Nc2cccc(C(=O)N(C)C)c2O)c(=O)c1=O)c1ncco1 (stereo not given) | 795 | 8.6 |  |  |  |
| CC[C@@H](Nc1c(Nc2cccc(C(=O)N(C)C)c2O)c(=O)c1=O)c1cc(C)on1 | 171 | 6.3 | 3.7 | inactive |  |
| CCC(Nc1c(Nc2cccc(C(=O)N(C)C)c2O)c(=O)c1=O)c1ccoc1 (stereo not given) | 812 | 8 |  |  |  |
| CCC(Nc1c(Nc2cccc(C(=O)N(C)C)c2O)c(=O)c1=O)c1cccs1 (stereo not given) | 179 | 6.2 |  |  |  |
| CCC(Nc1c(Nc2cccc(C(=O)N(C)C)c2O)c(=O)c1=O)c1sccc1Cl (stereo not given) | 1370 | 21 |  |  |  |
| CCC(Nc1c(Nc2cccc(C(=O)N(C)C)c2O)c(=O)c1=O)c1ccc(Cl)o1 (stereo not given) | 275 | 4.8 |  |  |  |
| CC[C@@H](Nc1c(Nc2cccc(C(=O)N(C)C)c2O)c(=O)c1=O)c1ccc(Cl)o1 | 244 | 4.6 |  |  |  |
| CCC(Nc1c(Nc2cccc(C(=O)N(C)C)c2O)c(=O)c1=O)c1cccn1C (stereo not given) |  | 815 |  |  | inactive |
| CC[C@@H](Nc1c(Nc2cccc(C(=O)N(C)C)c2O)c(=O)c1=O)c1ccsc1 | 104 | 3.4 |  |  |  |
| CCC(Nc1c(Nc2cccc(C(=O)N(C)C)c2O)c(=O)c1=O)c1ccno1 (stereo not given) | 302 | 9.8 |  |  |  |
| CCC(Nc1c(Nc2cccc(C(=O)N(C)C)c2O)c(=O)c1=O)c1ccc(C(=O)N(C)C)o1 (stereo not given) |  | 171 |  |  | inactive |
| CCC(Nc1c(Nc2cccc(C(=O)N(C)C)c2O)c(=O)c1=O)c1ccco1 (stereo not given) | 67 | 5 |  |  |  |
| CCC(Nc1c(Nc2cccc(C(=O)N(C)C)c2O)c(=O)c1=O)c1ccc(CN(C)C)o1 (stereo not given) |  | 94 |  |  | inactive |
| CCC(Nc1c(Nc2cccc(C(=O)N(C)C)c2O)c(=O)c1=O)c1cc(-c2c(C)noc2C)co1 (stereo not given) | 345 | 7.6 |  |  |  |
| CC[C@@H](Nc1c(Nc2cccc(C(=O)N(C)C)c2O)c(=O)c1=O)c1cc(Br)co1 | 55 | 3.5 | 33.4 |  |  |
| CCC(Nc1c(Nc2cccc(C(=O)N(C)C)c2O)c(=O)c1=O)c1ccc(-c2ccccc2C(F)(F)F)o1 (stereo not given) |  | 150 |  |  | inactive |
| CCC(Nc1c(Nc2cccc(C(=O)N(C)C)c2O)c(=O)c1=O)c1ccc(CO)o1 (stereo not given) | 182 | 2.8 |  |  |  |
| CCC(Nc1c(Nc2cccc(C(=O)N(C)C)c2O)c(=O)c1=O)c1ccc(-c2cccc(C(F)(F)F)c2)o1 (stereo not given) | 3430 | 87 |  |  |  |
